Measurements taken from ChEMBL document CHEMBL3046414, “Synthesis, anticancer, anti-HIV-1, and antimicrobial activity of some tricyclic triazino and triazolo[4,3-e]purine derivatives” (Med Chem Res, 2012).

Key:
Assay type in all cases: functional
[1] = Cytotoxicity against Homo sapiens (human) Ovarian cancer cell after 48 hr by SRB assay; details: Cancer cell lines
[2] = test system: SF-268; assay: Anticancer activity against Homo sapiens (human) SF268 cells assessed as cell growth at 100 uM after 48 hr by Alamar blue assay; details: SF-268, 48 h, read-out: Activity
[3] = test system: UO-31; assay: Cytotoxicity against Homo sapiens (human) UO31 cells after 48 hr by SRB assay; details: UO-31, 48 h
[4] = test system: SK-MEL-5; assay: Cytotoxicity against Homo sapiens (human) SK-MEL-5 cells after 48 hr by SRB assay; details: SK-MEL-5, 48 h
[5] = Cytotoxicity against Homo sapiens (human) NSCLC cell after 48 hr by SRB assay
[6] = test system: CAKI-1; assay: Cytotoxicity against Homo sapiens (human) CAKI-1 cells after 48 hr by SRB assay; details: CAKI-1, 48 h
[7] = test system: ACHN; assay: Cytotoxicity against Homo sapiens (human) ACHN cells after 48 hr by SRB assay
[8] = test system: Bacillus spizizenii; assay: Antimicrobial activity against Bacillus subtilis subsp. spizizenii ATCC 6633 after 24 hr by agar cup diffusion technique
[9] = test system: NCI-H226; assay: Cytotoxicity against Homo sapiens (human) NCI-H226 cells after 48 hr by SRB assay; details: NCI-H226, 48 h
[10] = Cytotoxicity against Homo sapiens (human) Colon cancer cell after 48 hr by SRB assay; details: Cancer cell lines
[11] = test system: MCF7; assay: Anticancer activity against Homo sapiens (human) MCF7 cells assessed as cell growth at 100 uM after 48 hr by Alamar blue assay; details: MCF7, 48 h, read-out: Activity
[12] = test system: Pseudomonas aeruginosa; assay: Antimicrobial activity against Pseudomonas aeruginosa ATCC 9027 after 24 hr by agar cup diffusion technique
[13] = test system: A498; assay: Cytotoxicity against Homo sapiens (human) A498 cells after 48 hr by SRB assay; details: A498, 48 h
[14] = Cytotoxicity against Homo sapiens (human) Prostate cancer cell after 48 hr by SRB assay; details: Cancer cell lines
[15] = test system: T47D; assay: Cytotoxicity against Homo sapiens (human) T47D cells after 48 hr by SRB assay
[16] = Cytotoxicity against Homo sapiens (human) Breast cancer cell after 48 hr by SRB assay; details: Cancer cell lines
[17] = Cytotoxicity against Homo sapiens (human) Melanoma cell after 48 hr by SRB assay
[18] = test system: Saccharomyces cerevisiae; assay: Antimicrobial activity against Saccharomyces cerevisiae ATCC 9763 after 48 hr by agar cup diffusion technique
[19] = test system: Aspergillus niger; assay: Antimicrobial activity against Aspergillus niger ATCC 16404 after 48 hr by agar cup diffusion technique
[20] = test system: NCI-H460; assay: Anticancer activity against Homo sapiens (human) NCI-H460 cells assessed as cell growth at 100 uM after 48 hr by Alamar blue assay; details: NCI-H460, 48 h, read-out: Activity
[21] = Cytotoxicity against Homo sapiens (human) CNS cancer cell after 48 hr by SRB assay; details: Cancer cell lines
[22] = test system: Malme-3M; assay: Cytotoxicity against Homo sapiens (human) MALME-3M cells after 48 hr by SRB assay
[23] = test system: Proteus vulgaris; assay: Antimicrobial activity against Proteus vulgaris ATCC 49132 after 24 hr by agar cup diffusion technique
[24] = Cytotoxicity against Homo sapiens (human) Renal cancer cell after 48 hr by SRB assay; details: Cancer cell lines
[25] = test system: CCRF-CEM; assay: Cytotoxicity against Homo sapiens (human) CCRF-CEM cells after 48 hr by SRB assay
[26] = test system: HOP-92; assay: Cytotoxicity against Homo sapiens (human) HOP92 cells after 48 hr by SRB assay; details: HOP-92, 48 h
[27] = test system: Salmonella typhi; assay: Antimicrobial activity against Salmonella enterica subsp. enterica serovar Typhi ATCC 13311 after 24 hr by agar cup diffusion technique
[28] = test system: Escherichia coli; assay: Antimicrobial activity against Escherichia coli 5933 after 24 hr by agar cup diffusion technique
[29] = Cytotoxicity against Homo sapiens (human) Leukemia cell after 48 hr by SRB assay
[30] = test system: Candida albicans; assay: Antimicrobial activity against Candida albicans NCTC 2708 after 48 hr by agar cup diffusion technique
[31] = test system: Bacillus spizizenii; assay: Antimicrobial activity against Bacillus subtilis subsp. spizizenii ATCC 6633 after 24 hr by two-fold serial dilution method; details: ATCC 6633, 24 h
[32] = test system: Escherichia coli; assay: Antimicrobial activity against Escherichia coli 5933 after 24 hr by two-fold serial dilution method; details: Escherichia coli, 5933, 24 h
[33] = test system: Pseudomonas aeruginosa; assay: Antimicrobial activity against Pseudomonas aeruginosa ATCC 9027 after 24 hr by two-fold serial dilution method; details: ATCC 9027, 24 h
[34] = test system: Proteus vulgaris; assay: Antimicrobial activity against Proteus vulgaris ATCC 49132 after 24 hr by two-fold serial dilution method; details: ATCC 49132, 24 h
[35] = test system: Staphylococcus aureus; assay: Antimicrobial activity against Staphylococcus aureus NCTC 4163 after 24 hr by agar cup diffusion technique
[36] = test system: Aspergillus terreus; assay: Antimicrobial activity against Aspergillus terreus after 48 hr by agar cup diffusion technique

Work on `Cn1c(=O)c2nc3[nH]nc(C#N)c(=N)n3c2n(C)c1=O` yielded a GI50 [1] of 97.9 µM, a TGI [1] of 100 µM and a growth at 100 µM [2] of 47%. The GI50 [3] was 50.6 µM, the GI50 [4] was 45.9 µM and the GI50 [5] was 87.3 µM. It also gave a TGI [5] of 100 µM, a GI50 [6] of 51.7 µM and a GI50 [7] of 44.3 µM. For the same compound, the “inhibition zone (IZ)” value [8] was 14 mm, the GI50 [9] was 54 µM and the GI50 [10] was 100 µM. For the same compound, the TGI [10] was 100 µM, the growth at 100 µM [11] was 14% and the “inhibition zone (IZ)” value [12] was 18 mm. For the same compound, the GI50 [13] was 51.4 µM, the GI50 [14] was 86.3 µM and the TGI [14] was 100 µM. It also gave a GI50 [15] of 32.9 µM, a GI50 [16] of 91.6 µM and a TGI [16] of 100 µM. For the same compound, the GI50 [17] was 81.6 µM, the TGI [17] was 96.9 µM and the “inhibition zone (IZ)” value [18] was 14 mm. The “inhibition zone (IZ)” value [19] was 12 mm, the growth at 100 µM [20] was 62% and the GI50 [21] was 98 µM. The TGI [21] was 100 µM, the GI50 [22] was 25.2 µM and the “inhibition zone (IZ)” value [23] was 19 mm. The GI50 [24] was 72.2 µM, the TGI [24] was 100 µM and the GI50 [25] was 67.8 µM. The GI50 [26] was 31.8 µM, the “inhibition zone (IZ)” value [27] was 12 mm and the “inhibition zone (IZ)” value [28] was 14 mm. For the same compound, the GI50 [29] was 94.6 µM, the TGI [29] was 100 µM and the “inhibition zone (IZ)” value [30] was 12 mm.

For `COc1ccc(-c2nnc3n(C)c4c(=O)n(C)c(=O)n(C)c4n23)cc1`, the MIC [31] was less than 200 µg/mL, the MIC [32] was less than 200 µg/mL and the “inhibition zone (IZ)” value [8] was 20 mm. The MIC [33] was less than 200 µg/mL, the “inhibition zone (IZ)” value [12] was 21 mm and the MIC [34] was less than 50 µg/mL. The “inhibition zone (IZ)” value [18] was 16 mm, the “inhibition zone (IZ)” value [35] was 14 mm and the “inhibition zone (IZ)” value [23] was 28 mm. For the same compound, the “inhibition zone (IZ)” value [36] was 16 mm, the “inhibition zone (IZ)” value [27] was 17 mm and the “inhibition zone (IZ)” value [28] was 20 mm. The “inhibition zone (IZ)” value [30] was 18 mm.
